Assay [1] has as its target T1, human JAK1 (a.a. 837-1142) (Homo sapiens, UniProt P23458).
T1 construct: human JAK1 (a.a. 837-1142); made in house; host or cells: insect cells (baculovirus)
As to the kind of experiment: In vitro JAK kinase assay (HTRF), JAK1. The class given is biochemical. The conditions noted are these: 1 mM ATP.

Assay [2] concerns the target T2, human JAK2 (a.a. 828-1132) (Homo sapiens, UniProt O60674).
T2 construct: JAK2 (a.a. 828-1132); made in house; host or cells: insect cells (baculovirus)
As to the kind of experiment: In vitro JAK kinase assay (HTRF), JAK2. It is filed as biochemical. The conditions noted are these: ratio of IC50s at 1 mM ATP.

The structures appear in SMILES notation.

T2 sequence (O60674 828-1132): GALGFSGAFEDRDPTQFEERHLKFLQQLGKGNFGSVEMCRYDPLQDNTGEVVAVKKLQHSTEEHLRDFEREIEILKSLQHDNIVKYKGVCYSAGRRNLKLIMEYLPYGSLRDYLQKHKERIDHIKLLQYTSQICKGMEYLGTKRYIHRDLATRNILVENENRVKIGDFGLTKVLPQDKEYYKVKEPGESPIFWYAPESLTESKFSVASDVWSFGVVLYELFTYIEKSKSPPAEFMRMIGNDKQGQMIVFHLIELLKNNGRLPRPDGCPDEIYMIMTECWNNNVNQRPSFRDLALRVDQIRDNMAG
T1 sequence (P23458 849-1154): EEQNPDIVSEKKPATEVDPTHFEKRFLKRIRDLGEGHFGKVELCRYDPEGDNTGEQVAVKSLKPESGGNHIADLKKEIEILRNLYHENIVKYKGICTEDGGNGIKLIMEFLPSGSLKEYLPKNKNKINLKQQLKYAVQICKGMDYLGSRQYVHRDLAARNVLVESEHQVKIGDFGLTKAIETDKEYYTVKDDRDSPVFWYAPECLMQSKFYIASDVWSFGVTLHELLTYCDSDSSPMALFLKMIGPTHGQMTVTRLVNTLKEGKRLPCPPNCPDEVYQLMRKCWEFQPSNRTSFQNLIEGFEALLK

Turning to `N#CC[C@]1(n2cc(-c3ncnc4[nH]ccc34)cn2)C[C@H](N2CCC(Oc3cc(CN4CCC[C@@H]4CO)cc(C(F)(F)F)n3)CC2)C1` [Compound 13, {trans-3-(4-{[4-{[(2R)-2-(hydroxymethyl)pyrrolidin-1-yl]methyl}-6-(trifluoromethyl)pyridin-2-yl]oxy}piperidin-1-yl)-1-[4-(7H-pyrrolo[2,3-d]pyrimidin-4-yl)-1H-pyrazol-1-yl]cyclobutyl} acetonitrile], the IC50 in assay [1] is less than 10 nM. The JAK2/JAK1 in assay [2] is greater than 10.

In assay [1], `C[C@H](NC(=O)c1cc(F)c(N2CC(CC#N)(n3cc(-c4ncnc5[nH]ccc45)cn3)C2)cc1F)C(F)(F)F` [Compound 16, 4-{3-(cyanomethyl)-3-[4-(7H-pyrrolo[2,3-d]pyrimidin-4-yl)-1H-pyrazol-1-yl]azetidin-1-yl}-2,5-difluoro-N-[(1S)-2,2,2-trifluoro-1-methylethyl]benzamide] came in with an IC50 of less than 10 nM. For the same compound, the JAK2/JAK1 in assay [2] is greater than 10.

With `N#CCC1(n2cc(-c3ncnc4[nH]ccc34)cn2)CN([C@H]2CC[C@@H](Oc3cc(CCO)nc(C(F)(F)F)n3)CC2)C1` [Compound 18, {1-(cis-4-{[6-(2-hydroxyethyl)-2-(trifluoromethyl)pyrimidin-4-yl]oxy}cyclohexyl)-3-[4-(7H-pyrrolo[2,3-d]pyrimidin-4-yl)-1H-pyrazol-1-yl]azetidin-3-yl}acetonitrile], the IC50 in assay [1] was less than 10 nM. The JAK2/JAK1 in assay [2] is reported as greater than 10.

Compound `CCNCc1cc(O[C@H]2CC[C@@H](N3CC(CC#N)(n4cc(-c5ncnc6[nH]ccc56)cn4)C3)CC2)nc(C(F)(F)F)c1` [Compound 19, {1-(cis-4-{[4-[(ethylamino)methyl]-6-(trifluoromethyl)pyridin-2-yl]oxy}cyclohexyl)-3-[4-(7H-pyrrolo[2,3-d]pyrimidin-4-yl)-1H-pyrazol-1-yl]azetidin-3-yl}acetonitrile] yielded an IC50 in assay [1] of less than 10 nM. Further, the JAK2/JAK1 in assay [2] was greater than 10.

In the case of `CC(C)(O)c1cc(O[C@H]2CC[C@@H](N3CC(CC#N)(n4cc(-c5ncnc6[nH]ccc56)cn4)C3)CC2)nc(C(F)(F)F)c1` [Compound 20, {1-(cis-4-{[4-(1-hydroxy-1-methylethyl)-6-(trifluoromethyl)pyridin-2-yl]oxy}cyclohexyl)-3-[4-(7H-pyrrolo[2,3-d]pyrimidin-4-yl)-1H-pyrazol-1-yl]azetidin-3-yl}acetonitrile], the IC50 in assay [1] is less than 10 nM. In addition, the JAK2/JAK1 in assay [2] is recorded as greater than 10.

Regarding `N#CCC1(n2cc(-c3ncnc4[nH]ccc34)cn2)CN([C@H]2CC[C@@H](Oc3cc(CN4CC[C@@H](O)C4)cc(C(F)(F)F)n3)CC2)C1` [Compound 21, {1-(cis-4-{[4-{[(3R)-3-hydroxypyrrolidin-1-yl]methyl}-6-(trifluoromethyl)pyridin-2-yl]oxy}cyclohexyl)-3-[4-(7H-pyrrolo[2,3-d]pyrimidin-4-yl)-1H-pyrazol-1-yl]azetidin-3-yl}acetonitrile], the IC50 in assay [1] was less than 10 nM. In addition, the JAK2/JAK1 in assay [2] is reported as greater than 10.

Compound `N#CCC1(n2cc(-c3ncnc4[nH]ccc34)cn2)CN([C@H]2CC[C@@H](Oc3cc(CN4CC[C@H](O)C4)cc(C(F)(F)F)n3)CC2)C1` [Compound 22, {1-(cis-4-{[4-{[(3S)-3-hydroxypyrrolidin-1-yl]methyl}-6-(trifluoromethyl)pyridin-2-yl]oxy}cyclohexyl)-3-[4-(7H-pyrrolo[2,3-d]pyrimidin-4-yl)-1H-pyrazol-1-yl]azetidin-3-yl}acetonitrile] yielded an IC50 in assay [1] of less than 10 nM. Besides, the JAK2/JAK1 in assay [2] is recorded as greater than 10.

`C[C@@H](CO)NCc1cc(OC2CCN([C@H]3C[C@](CC#N)(n4cc(-c5ncnc6[nH]ccc56)cn4)C3)CC2)nc(C(F)(F)F)c1` [Compound 23, {trans-3-(4-{[4-({[(1S)-2-hydroxy-1-methylethyl]amino}methyl)-6-(trifluoromethyl)pyridin-2-yl]oxy}piperidin-1-yl)-1-[4-(7H-pyrrolo[2,3-d]pyrimidin-4-yl)-1H-pyrazol-1-yl]cyclobutyl} acetonitrile]: the IC50 in assay [1] was less than 10 nM. In addition, the JAK2/JAK1 in assay [2] was greater than 10.

The record behind these values is patent US9498467B2, “Treatment of chronic neutrophilic leukemia (CNL) and atypical chronic myeloid leukemia (aCML) by inhibitors of JAK1” (Incyte Corporation, priority 2014, dated 2016).
